Measured values taken from paper PMC7750294 (Journal of pharmaceutical sciences, 2020).
Values joined by “and” are separate entries in the source; they are usually repeats but may differ in a detail not shown here. Equal values may be shown once. Read-outs that look alike come from different tables or passages of the source.

Legend:
[1] = cited from earlier work
OATP1B1 [2] = target: T1, OATP1B1 (Homo sapiens, UniProt Q9Y6L6); conditions: read-out: Apparent Km of transport by OATP1B1; cited from earlier work
T1 sequence (Q9Y6L6 1-691): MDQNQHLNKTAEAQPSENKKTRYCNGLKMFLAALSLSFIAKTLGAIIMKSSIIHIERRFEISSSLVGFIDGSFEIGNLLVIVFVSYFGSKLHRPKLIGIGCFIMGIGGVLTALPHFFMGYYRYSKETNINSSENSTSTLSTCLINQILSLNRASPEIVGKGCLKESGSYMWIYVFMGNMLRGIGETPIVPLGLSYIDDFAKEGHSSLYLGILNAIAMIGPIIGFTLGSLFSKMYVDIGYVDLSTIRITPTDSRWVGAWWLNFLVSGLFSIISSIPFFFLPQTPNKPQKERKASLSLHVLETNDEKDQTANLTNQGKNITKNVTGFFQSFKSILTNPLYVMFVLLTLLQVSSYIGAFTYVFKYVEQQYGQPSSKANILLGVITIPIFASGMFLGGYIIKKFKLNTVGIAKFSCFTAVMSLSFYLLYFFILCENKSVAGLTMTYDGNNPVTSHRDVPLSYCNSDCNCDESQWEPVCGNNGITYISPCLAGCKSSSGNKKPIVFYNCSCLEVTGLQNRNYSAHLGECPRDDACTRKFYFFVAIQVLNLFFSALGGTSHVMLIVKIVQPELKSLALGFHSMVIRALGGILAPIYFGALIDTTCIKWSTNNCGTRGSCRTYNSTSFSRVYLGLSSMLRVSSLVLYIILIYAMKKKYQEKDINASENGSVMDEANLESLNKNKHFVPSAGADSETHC

Caco-2 cell monolayers = conditions: cited from earlier work; for Reference Papp,caco-2 (7.4:7.4): ref Simcyp library value
P-gp = conditions: cited from earlier work
OATP1B1 [3] = target: T1, OATP1B1; test: Inhibition of OATP1B1-mediated [3H]-E217βG accumulation in HEK293-OATP1B1 cells; format: cell-based
OATP1B1 [4] = target: T1, OATP1B1; conditions: 10 μM vemurafenib, aqueous buffer; cited from earlier work
[5] = cited from earlier work; remark: listed apart in the source
Estimation of Iin,max = test: Estimation of Iin,max; parameters: species or system human; conditions: 960 mg; faFg = 1; Eq. 4
[6] = Vemurafenib PBPK model parameters; parameters: species or system human
OATP1B3 [7] = target: T2, OATP1B3 (Homo sapiens, UniProt Q9NPD5); test: Inhibition of OATP1B3-mediated [3H]-CCK-8 accumulation in HEK293-OATP1B3 cells; format: cell-based
T2 sequence (Q9NPD5 1-702): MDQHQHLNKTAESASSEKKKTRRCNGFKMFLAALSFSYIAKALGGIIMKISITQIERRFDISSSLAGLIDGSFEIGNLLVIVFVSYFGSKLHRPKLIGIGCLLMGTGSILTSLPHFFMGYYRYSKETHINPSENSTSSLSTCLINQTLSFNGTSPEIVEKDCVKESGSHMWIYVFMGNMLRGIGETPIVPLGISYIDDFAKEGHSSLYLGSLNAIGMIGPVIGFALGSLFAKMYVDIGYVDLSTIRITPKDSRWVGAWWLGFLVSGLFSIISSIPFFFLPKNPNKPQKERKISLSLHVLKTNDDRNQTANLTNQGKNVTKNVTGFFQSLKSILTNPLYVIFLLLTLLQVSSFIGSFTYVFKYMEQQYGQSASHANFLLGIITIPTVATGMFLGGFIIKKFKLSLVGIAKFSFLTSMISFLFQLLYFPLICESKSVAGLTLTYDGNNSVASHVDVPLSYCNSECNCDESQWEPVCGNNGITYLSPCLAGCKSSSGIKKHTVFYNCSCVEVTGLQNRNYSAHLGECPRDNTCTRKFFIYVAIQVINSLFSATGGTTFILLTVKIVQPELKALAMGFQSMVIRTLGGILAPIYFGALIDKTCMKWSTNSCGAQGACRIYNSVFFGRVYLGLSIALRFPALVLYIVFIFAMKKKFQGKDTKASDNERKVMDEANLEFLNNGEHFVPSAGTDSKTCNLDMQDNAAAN

[8] = cited from earlier work; for Aqueous solubility: highest/maximum aqueous solubility
OATP1B3 [9] = target: T2, OATP1B3; conditions: cited from earlier work
[10] = IC50,total against OATP1B1, 100% human plasma (pH 7.4), [3H]-E217βG 5 μM, 3 min, HEK293-OATP1B1
[11] = vemurafenib 150 μM in human plasma

C[C@]12CC[C@@H]3c4ccc(O)cc4CC[C@H]3[C@@H]1CC[C@@H]2O[C@@H]1O[C@H](C(=O)O)[C@@H](O)[C@H](O)[C@H]1O [E217βG, estradiol 17 β-D-glucuronide]
fu (reported protein binding) [1]: 0.39 | Km (OATP1B1 [2]): ~8.3 µM

CN/C(=N/CCSCc1nc[nH]c1C)NC#N [cimetidine]
Reference Papp,caco-2 (7.4:7.4) (Caco-2 cell monolayers): 4 10^−6 cm/s

C[C@H]1O[C@@H](O[C@H]2[C@@H](O)C[C@H](O[C@H]3[C@@H](O)C[C@H](O[C@H]4CC[C@@]5(C)[C@H](CC[C@@H]6[C@@H]5C[C@@H](O)[C@]5(C)[C@@H](C7=CC(=O)OC7)CC[C@]65O)C4)O[C@@H]3C)O[C@@H]2C)C[C@H](O)[C@@H]1O [digoxin]
Mean terminal half-life (P-gp; single dose of digoxin alone): 35.0 h | Mean terminal half-life (P-gp; single dose of digoxin co-administered with vemurafenib): 56.4 h

CNC(=C[N+](=O)[O-])NCCSCc1ccc(CN(C)C)o1 [ranitidine]
Reference Papp,caco-2 (7.4:7.4) (Caco-2 cell monolayers): 1.2 10^−6 cm/s

CO[C@H]1/C=C/O[C@@]2(C)Oc3c(C)c(O)c4c(O)c(c(/C=N/N5CCN(C)CC5)c(O)c4c3C2=O)NC(=O)/C(C)=C\C=C\[C@H](C)[C@H](O)[C@@H](C)[C@@H](O)[C@@H](C)[C@H](OC(C)=O)[C@@H]1C [rifampicin]
IC50 (OATP1B1 [3]; [10]): 2.1 µM | IC50 (OATP1B1 [3]; read-out: Estimated IC50,unbound,OATP1B1, IC50,total 2.1 μM × fu,plasma 0.116): 0.24 µM

CCCS(=O)(=O)Nc1ccc(F)c(C(=O)c2c[nH]c3ncc(-c4ccc(Cl)cc4)cc23)c1F [vemurafenib]
Blood-to-plasma ratio (RB) ([1]; [14C]-vemurafenib): 0.58 | Protein bound in human plasma [1]: > 99% | Unbound fraction in human plasma ([1]; independent of concentration 0.5–100 μM): 0.0014 | IC50 (OATP1B1 [3]; [10]): 175 µM | Effect on OATP1B1-mediated transport vs vehicle control (OATP1B1 [3]; vemurafenib 0.78 μM in HBSS buffer (pH 7.4), protein-free, E217βG […], 2 min): does not affect | OATP1B1-mediated transport remaining (OATP1B1 [3]; [11]): 60.2 % of control | OATP1B1-mediated [3H]-E217βG transport (OATP1B1 [3]; vemurafenib 500 μM in 100% human plasma, E217βG 5 μM, 3 min): 0.38 ± 0.1 fold of control | Decrease of OATP1B1-mediated [3H]-E217βG transport (OATP1B1 [4]): ~ 75% and 75% | Time to steady state ([5]; 960 mg BID multiple dosing): 15 to 21 days | AUC0–8 h accumulation, day 15 vs day 1 ([5]; 960 mg BID): 23.2 ± 16.5 fold | CLpo [5]: 2.67 (53.5) L/h, CV% | Median accumulation ratio [5]: 7.36 | Oral dose recovered in urine as parent [5]: 0.97% | Time to steady state for most patients [5]: ≤ 22 days | ka, absorption rate constant ([5]; oral, population pharmacokinetic analysis): 0.19 h⁻¹ | Iin,max (estimated total maximum plasma concentration at the inlet to the liver) (Estimation of Iin,max): 132 µM and 132.5 µM | Vd ([6]; human, oral, 960 mg): 0.9 L/kg | CLR (renal clearance) ([6]; set from 0.97% of oral dose recovered in urine as parent): 0.01787 L/h | Passive permeability coefficient in Caco-2 cell monolayers (Caco-2 cell monolayers; ranitidine as reference compound): 2.9 10^−6 cm/s | IC50 (OATP1B3 [7]; IC50,total against OATP1B3, 100% human plasma (pH 7.4), [3H]-CCK-8 1 μM, 3 min, HEK293-OATP1B3): 231 µM | IC50 at 3 min (OATP1B3 [7]; human, HEK293 cells over-expressing OATP1B3 (HEK293-OATP1B3), pH 7.4, probe [3H]-CCK-8 (1 μM), IC50,total against OATP1B3, 100% human plasma (pH 7.4), [3H]-CCK-8 1 μM, 3 min, HEK293-OATP1B3): 232 ± 26 µM | Effect on OATP1B3-mediated transport vs vehicle control (OATP1B3 [7]; vemurafenib 0.78 μM in HBSS buffer (pH 7.4), protein-free, CCK-8 1 μM, 3 min): does not affect | OATP1B3-mediated transport remaining (OATP1B3 [7]; [11]): 72.1 % of control | OATP1B3-mediated [3H]-CCK-8 transport (OATP1B3 [7]; vemurafenib 500 μM in 100% human plasma, CCK-8 1 μM, 3 min): 0.13 ± 0.04 fold of control | pKa (first) ([8]; diprotic acid): 7.9 | pKa (second) ([8]; diprotic acid): 11.1 | Aqueous solubility [8]: 0.78 µM | Aqueous solubility ([8]; listed as Vemurafenib): ~ 0.78 μM | Log PO:W ([8]; neutral species octanol:buffer partition coefficient): 3 | Uptake in OATP1B3-overexpressing cells vs vehicle control cells (OATP1B3 [9]): ~ 1.5 fold

Cholecystokinin 8 [CCK-8]
Km (OATP1B3 [9]): ~3.8 µM
